The values that follow come from patent EP4667483A1, “HUMAN TRANSFERRIN RECEPTOR-BINDING PEPTIDE” (JCR Pharmaceuticals Co., Ltd., priority 2023, dated 2024).

Type in all cases: binding
The target in test [1] is T1, human transferrin receptor (hTfR) (Homo sapiens, UniProt P02786). The experiment in a line: Evaluation of pH dependence (ratio of SPR koff or KD at pH 6.0 to pH 7.4). The settings on record: ratio of koff at pH 6.0 to pH 7.4. The method, then:
The ratio of the calculated koff or KD values under pH 6.0 conditions to those under pH 7.4 conditions was calculated to check pH dependency.

For test [2], the target named is T1, human transferrin receptor (hTfR). The experiment in a line: SPR measurement under pH 6.0 conditions (Biacore T200, NTA chip, immobilized hTfR). The settings on record: SPR, pH 6.0; read-out: hTfR SPR pH6.0 KD. In general terms: SPR reads the build-up and loss of mass on a sensor chip optically.
Test [3] has the same target. Briefly: SPR measurement under pH 7.4 conditions (Biacore T200, CM3 chip, hTfR captured by His Tag antibody). The settings on record: SPR, pH 7.4; read-out: hTfR SPR pH7.4 KD.

Numbered stars: 1 amine (or outer) side, 2 acyl side, 3 side chain; on linkers, the order of the positions; unused ones are H or OH. Bridge positions count the residues as written; N and C are the ends. Square brackets hold non-standard residues; d marks the D form. Peptide text beside a SMILES is read from it. * marks the point of attachment. Trp(1-CH2COOH) = N[C@@H](Cc1cn(CC(=O)O)c2ccccc12)C(=O)O; NMePhe(4-COOH) = CN[C@@H](Cc1ccc(C(=O)O)cc1)C(=O)O; Nle(6-morpholino) = N[C@@H](CCCCN1CCOCC1)C(=O)O; X2 = O=C([C@H](Cc1cn(CCO)c2ccccc12)N[*:1])[*:2]; Phe(3-COOH) = N[C@@H](Cc1cccc(C(=O)O)c1)C(=O)O; NH(CH2CH2O)8Me = COCCOCCOCCOCCOCCOCCOCCOCCN*; NMePhe(3-Cl) = CN[C@@H](Cc1cccc(Cl)c1)C(=O)O; NMePhe(4-Cl) = CN[C@@H](Cc1ccc(Cl)cc1)C(=O)O; 3Pal(6-NH2) = Nc1ccc(C[C@H](N)C(=O)O)cn1; NMeY = CN[C@@H](Cc1ccc(O)cc1)C(=O)O; Nva(3-Et) = CCC(CC)[C@H](N)C(=O)O; PEG4 = NCCOCCOCCOCCOCCC(=O)O; Carboxymethyl = O=C(O)C*

T1 sequence (P02786 whole entry): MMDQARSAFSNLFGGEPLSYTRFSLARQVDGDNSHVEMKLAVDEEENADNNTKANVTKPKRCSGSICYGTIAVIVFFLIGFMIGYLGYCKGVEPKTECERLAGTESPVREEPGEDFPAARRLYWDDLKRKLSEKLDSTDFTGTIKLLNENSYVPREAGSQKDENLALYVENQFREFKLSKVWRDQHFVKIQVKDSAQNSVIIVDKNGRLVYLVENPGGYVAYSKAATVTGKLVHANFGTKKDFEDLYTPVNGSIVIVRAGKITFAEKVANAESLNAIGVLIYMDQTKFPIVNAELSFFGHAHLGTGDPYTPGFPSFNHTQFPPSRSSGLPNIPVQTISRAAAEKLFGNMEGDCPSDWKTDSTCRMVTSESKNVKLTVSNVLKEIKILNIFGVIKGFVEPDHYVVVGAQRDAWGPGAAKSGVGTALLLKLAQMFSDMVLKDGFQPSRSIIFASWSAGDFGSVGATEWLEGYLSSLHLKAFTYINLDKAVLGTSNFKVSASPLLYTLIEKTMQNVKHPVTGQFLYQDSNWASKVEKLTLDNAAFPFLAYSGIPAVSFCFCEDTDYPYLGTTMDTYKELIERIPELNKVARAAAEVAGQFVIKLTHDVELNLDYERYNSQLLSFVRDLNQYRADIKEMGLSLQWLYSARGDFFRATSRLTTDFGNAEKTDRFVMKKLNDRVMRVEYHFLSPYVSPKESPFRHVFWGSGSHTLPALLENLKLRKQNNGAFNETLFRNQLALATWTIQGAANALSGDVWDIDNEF

What is called Kd is the equilibrium constant for the complex coming apart. As to `CCC(CC)[C@@H]1NC(=O)[C@H](Cc2ccc(OCC(=O)O)cc2)NC(=O)[C@H](Cc2ccc(O)cc2)NC(=O)[C@H](CC(N)=O)NC(=O)[C@H](Cc2c[nH]c3ccccc23)NC(=O)[C@H](C(C)C)NC(=O)[C@H](Cc2cccc(Cl)c2)N(C)C(=O)[C@H](C(C)C)NC(=O)[C@H](C)NC(=O)CSC[C@@H](C(=O)NCCOCCOCCOCCOCCC(N)=O)NC(=O)[C@H](Cc2ccc(O)cc2)N(C)C(=O)[C@H](Cc2cccc(C(=O)O)c2)NC(=O)[C@H](CCCNC(=N)N)NC(=O)[C@H](CCC(N)=O)NC(=O)[C@H]([C@@H](C)CC)NC1=O` [compound 75] ({CH2CO}-AV[NMePhe(3-Cl)]VWNYY(Carboxymethyl)[Nva(3-Et)]IQR[Phe(3-COOH)][NMeY]C[PEG4]-NH2; thioether N-15), the “dependency koff pH6.0/7.4” value in test [1] is recorded as 34.44. Besides, the results for the Kd in test [2] and in test [3] were 6.33 nM and 1.62 nM, respectively.
Consider `CC[C@H](C)[C@@H]1NC(=O)[C@H](Cc2ccc(OCC(=O)O)cc2)NC(=O)[C@H](Cc2ccc(O)cc2)NC(=O)[C@H](CC(N)=O)NC(=O)[C@H](Cc2cn(CCO)c3ccccc23)NC(=O)[C@H](C(C)C)NC(=O)[C@H](Cc2cccc(Cl)c2)N(C)C(=O)[C@H](C(C)C)NC(=O)[C@H](C)NC(=O)CSC[C@@H](C(=O)NCCOCCOCCOCCOCCC(N)=O)NC(=O)[C@H](Cc2ccc(O)cc2)N(C)C(=O)[C@H](Cc2cccc(C(=O)O)c2)NC(=O)[C@H](CCCNC(=N)N)NC(=O)[C@H](CCC(N)=O)NC(=O)[C@H]([C@@H](C)O)NC1=O` [compound 76] ({CH2CO}-AV[NMePhe(3-Cl)]V[X2]NYY(Carboxymethyl)ITQR[Phe(3-COOH)][NMeY]C[PEG4]-NH2; thioether N-15), for which the “dependency koff pH6.0/7.4” value in test [1] came to 3.37. In addition, the Kd in test [2] stood at 17 nM; in test [3], 13 nM.
`CCC(CC)[C@@H]1NC(=O)[C@H](Cc2ccc(OCC(=O)O)cc2)NC(=O)[C@H](Cc2ccc(N)nc2)NC(=O)[C@H](CC(N)=O)NC(=O)[C@H](Cc2c[nH]c3ccccc23)NC(=O)[C@H](C(C)C)NC(=O)[C@H](Cc2cccc(Cl)c2)N(C)C(=O)[C@H](C(C)C)NC(=O)[C@H](C)NC(=O)CSC[C@@H](C(=O)NCCOCCOCCOCCOCCC(N)=O)NC(=O)[C@H](Cc2ccc(O)cc2)N(C)C(=O)[C@H](Cc2cccc(C(=O)O)c2)NC(=O)[C@H](CCCNC(=N)N)NC(=O)[C@H](CCC(=O)NCCOCCOCCOCCOCCOCCOCCOCCOC)NC(=O)[C@H]([C@@H](C)CC)NC1=O` [compound 82] ({CH2CO}-AV[NMePhe(3-Cl)]VWN[3Pal(6-NH2)]Y(Carboxymethyl)[Nva(3-Et)]IE(NH(CH2CH2O)8Me)R[Phe(3-COOH)][NMeY]C[PEG4]-NH2; thioether N-15): in test [1], the “dependency koff pH6.0/7.4” value amounted to 20.39. Moreover, the Kd in test [2] was found to be 252 nM; in test [3], 27.1 nM.
In the same order, the values of `CCC(CC)[C@@H]1NC(=O)[C@H](Cc2ccc(OCC(=O)O)cc2)NC(=O)[C@H](Cc2ccc(N)nc2)NC(=O)[C@H](CC(N)=O)NC(=O)[C@H](Cc2cn(CC(=O)O)c3ccccc23)NC(=O)[C@H](C(C)C)NC(=O)[C@H](Cc2cccc(Cl)c2)N(C)C(=O)[C@H](C(C)C)NC(=O)[C@H](C)NC(=O)CSC[C@@H](C(=O)NCCOCCOCCOCCOCCC(N)=O)NC(=O)[C@H](Cc2ccc(O)cc2)N(C)C(=O)[C@H](Cc2cccc(C(=O)O)c2)NC(=O)[C@H](CCCCN2CCOCC2)NC(=O)[C@H](CCCCN2CCOCC2)NC(=O)[C@H]([C@@H](C)CC)NC1=O` [compound 83] ({CH2CO}-AV[NMePhe(3-Cl)]V[Trp(1-CH2COOH)]N[3Pal(6-NH2)]Y(Carboxymethyl)[Nva(3-Et)]I[Nle(6-morpholino)][Nle(6-morpholino)][Phe(3-COOH)][NMeY]C[PEG4]-NH2; thioether N-15) are 32.62, 144 nM and 43.7 nM.
The matching figures for `CCC(CC)[C@@H]1NC(=O)[C@H](Cc2ccc(OCC(=O)O)cc2)NC(=O)[C@H](Cc2ccc(N)nc2)NC(=O)[C@H](CC(N)=O)NC(=O)[C@H](Cc2cn(CC(=O)O)c3ccccc23)NC(=O)[C@H](C(C)C)NC(=O)[C@H](Cc2cccc(Cl)c2)N(C)C(=O)[C@H](C(C)C)NC(=O)[C@H](C)NC(=O)CSC[C@@H](C(=O)NCCOCCOCCOCCOCCC(N)=O)NC(=O)[C@H](Cc2ccc(O)cc2)N(C)C(=O)[C@H](Cc2cccc(C(=O)O)c2)NC(=O)[C@H](CCCNC(=N)N)NC(=O)[C@H](CCC(N)=O)NC(=O)[C@H]([C@@H](C)CC)NC1=O` [compound 84] ({CH2CO}-AV[NMePhe(3-Cl)]V[Trp(1-CH2COOH)]N[3Pal(6-NH2)]Y(Carboxymethyl)[Nva(3-Et)]IQR[Phe(3-COOH)][NMeY]C[PEG4]-NH2; thioether N-15): 17.42, 219 nM and 1910 nM.
The matching figures for `CCC(CC)[C@@H]1NC(=O)[C@H](Cc2ccc(OCC(=O)O)cc2)NC(=O)[C@H](Cc2ccc(N)nc2)NC(=O)[C@H](CC(N)=O)NC(=O)[C@H](Cc2cn(CC(=O)O)c3ccccc23)NC(=O)[C@H](C(C)C)NC(=O)[C@H](Cc2cccc(Cl)c2)N(C)C(=O)[C@H](C(C)C)NC(=O)[C@H](C)NC(=O)CSC[C@@H](C(=O)NCCOCCOCCOCCOCCC(N)=O)NC(=O)[C@H](Cc2ccc(C(=O)O)cc2)N(C)C(=O)[C@H](Cc2cccc(C(=O)O)c2)NC(=O)[C@H](CCCNC(=N)N)NC(=O)[C@H](CCC(N)=O)NC(=O)[C@H]([C@@H](C)CC)NC1=O` [compound 87] ({CH2CO}-AV[NMePhe(3-Cl)]V[Trp(1-CH2COOH)]N[3Pal(6-NH2)]Y(Carboxymethyl)[Nva(3-Et)]IQR[Phe(3-COOH)][NMePhe(4-COOH)]C[PEG4]-NH2; thioether N-15): 17.51, 466 nM and 175 nM.
For `CCC(CC)[C@@H]1NC(=O)[C@H](Cc2ccc(OCC(=O)O)cc2)NC(=O)[C@H](Cc2ccc(O)cc2)NC(=O)[C@H](CC(N)=O)NC(=O)[C@H](Cc2cn(CC(=O)O)c3ccccc23)NC(=O)[C@H](C(C)C)NC(=O)[C@H](Cc2cccc(Cl)c2)N(C)C(=O)[C@H](C(C)C)NC(=O)[C@H](C)NC(=O)CSC[C@@H](C(=O)NCCOCCOCCOCCOCCC(N)=O)NC(=O)[C@H](Cc2ccc(O)cc2)N(C)C(=O)[C@H](Cc2cccc(C(=O)O)c2)NC(=O)[C@H](CCCNC(=N)N)NC(=O)[C@H](CCC(N)=O)NC(=O)[C@H]([C@@H](C)CC)NC1=O` [compound 88] ({CH2CO}-AV[NMePhe(3-Cl)]V[Trp(1-CH2COOH)]NYY(Carboxymethyl)[Nva(3-Et)]IQR[Phe(3-COOH)][NMeY]C[PEG4]-NH2; thioether N-15), the “dependency koff pH6.0/7.4” value in test [1] turned out to be 8.60. The Kd worked out at 51.1 nM in test [2] and 6.96 nM in test [3].
In the same order, the values of `CCC(CC)[C@@H]1NC(=O)[C@H](Cc2ccc(OCC(=O)O)cc2)NC(=O)[C@H](Cc2ccc(O)cc2)NC(=O)[C@H](CC(N)=O)NC(=O)[C@H](Cc2cn(CC(=O)O)c3ccccc23)NC(=O)[C@H](C(C)C)NC(=O)[C@H](Cc2cccc(Cl)c2)N(C)C(=O)[C@H](C(C)C)NC(=O)[C@H](C)NC(=O)CSC[C@@H](C(=O)NCCOCCOCCOCCOCCC(N)=O)NC(=O)[C@H](Cc2ccc(Cl)cc2)N(C)C(=O)[C@H](Cc2cccc(C(=O)O)c2)NC(=O)[C@H](CCCNC(=N)N)NC(=O)[C@H](CCC(N)=O)NC(=O)[C@H]([C@@H](C)CC)NC1=O` [compound 92] ({CH2CO}-AV[NMePhe(3-Cl)]V[Trp(1-CH2COOH)]NYY(Carboxymethyl)[Nva(3-Et)]IQR[Phe(3-COOH)][NMePhe(4-Cl)]C[PEG4]-NH2; thioether N-15) are 5.47, 44.1 nM and 13.8 nM.
